The numbers were not newly measured in PubChem BioAssay AID1259409 (Chemical Carcinogenesis Research Information System (CCRIS), 2018), which cites them from elsewhere.

The data set deals with rodent chemically induced tumor inhibition, incidence and multiplicity. In words: CCRIS tumor inhibitor studies.

Each structure is given as a SMILES string.

Turning to `C=C1/C(=C\C=C2/CCC[C@]3(C)[C@@H]([C@H](C)CCCC(C)C)CC[C@@H]23)C[C@@H](O)C[C@@H]1O`, the “tumour outcome (control, treated, inhibition, significance)” value is recorded as 16/30 (53%), 8/30 (27%), 49%, p<0.05 (Carcinogen: N-METHYL-N'-NITRO-N-NITROSOGUANIDINE [70-25-7], Dose [Inhibitor]: 0.04 UG IN MEDIUM CHAIN TRIGLYCERIDE 3X/WK FOR 24 WK BEGINNING IMMEDIATELY POST LAST CARCINOGEN DOSE (STUDY DURATION: 48, Route [Inhibitor]: INTRAGASTRIC, Species: RAT, Strain/Sex: WISTAR WKY/STD/MALE, Target Tissue: Type of Lesion: STOMACH AND SMALL INTESTINE: TUMOR, Dose [Carcinogen]: 0.01% IN DRINKING WATER FOR 24 WK (STUDY DURATION: 48 WK), Promoter: NONE); 16/30 (53%), 8/30 (27%), 49%, p<0.05 (Carcinogen: N-METHYL-N'-NITRO-N-NITROSOGUANIDINE, 70-25-7, Dose [Inhibitor]: 0, 0.04 UG 3/WK FOR 24 WK BEGINNING POST CARCINOGEN TREATMENT (STUDY DURATION: 48 WK), Route [Inhibitor]: GAVAGE, Species: RAT, Strain/Sex: WISTAR/MALE, Target Tissue: Type of Lesion: GASTROINTESTINAL TRACT: TUMOR, Dose [Carcinogen]: 0.01% IN DRINKING WATER FOR 24 WK, Promoter: NONE USED); 21/24 (88%), 12/25 (48%), 45%, p<0.01 (Carcinogen: N-METHYL-N-NITROSOUREA, 684-93-5, Dose [Inhibitor]: 0, 0.04 UG IN 0.2 ML OF MEDIUM CHAIN TRIGLYCERIDE 3/WK FOR 40 WK (STUDY DURATION: 46 WK), Route [Inhibitor]: INTRAGASTRIC, Species: RAT, Strain/Sex: F344/FEMALE, Target Tissue: Type of Lesion: COLON: TUMOR, Dose [Carcinogen]: 1 MG IN 0.5 ML DISTILLED WATER 1/WK FOR 40 WK, Promoter: NONE USED); 15/32 (47%), 6/30 (20%), 57%, p<0.05 (Carcinogen: N-METHYL-N-NITROSOUREA, 684-93-5, Dose [Inhibitor]: 0.04 UG IN 0.2 ML OF MEDIUM CHAIN TRIGLYCERIDE FOLLOWING EACH PROMOTER DOSE 3/WK FOR 48 WK (STUDY DURATION: 50 WK), Route [Inhibitor]: GAVAGE, Species: RAT, Strain/Sex: F344/FEMALE, Target Tissue: Type of Lesion: COLON: ADENOMA OR ADENOCARCINOMA OR LEIOMYOSARCOMA, Dose [Carcinogen]: 2.5 MG IN 0.5 ML DISTILLED WATER TWICE IN 1 WK, Promoter: LITHOCHOLIC ACID, 434-13-9).
Turning to `COC(=O)/C(C)=C/C=C/C(C)=C\C=C\C=C(C)\C=C\C=C(C)\C=C\C1=C(C)CCCC1(C)C`, under “Carcinogen: BENZO[A]PYRENE, 50-32-8, Dose [Inhibitor]: 0, 4.7 MICROMOLAR/D IN 0.1 ML PEANUT OIL BEGINNING 2 WK PRIOR TO CARCINOGEN TREATMENT AND CONTINUING TO 2 WK POST CARCIN, Route [Inhibitor]: GAVAGE, Species: MOUSE, Strain/Sex: SWISS/FEMALE, Target Tissue: Type of Lesion: FORESTOMACH: TUMOR, Dose [Carcinogen]: 1 MG 2/WK IN 0.1 ML PEANUT OIL FOR 4 WK, Promoter: NONE USED”, the “tumour outcome (control, treated, inhibition, significance)” value is listed as 20/20 (100%), 4/20 (20%), 80%, p<0.001.
As to `O=C(O)c1cc(=O)[nH]c(=O)[nH]1`, the “tumour outcome (control, treated, inhibition, significance)” value (Carcinogen: URETHANE, 51-79-6, Dose [Inhibitor]: 0.1 MG/GM BW AS A 1% SUSPENSION IN DISTILLED WATER ONCE 14 WK OF AGE SIMULTANEOUS WITH CARCINOGEN TREATMENT (STUDY DURAT, Route [Inhibitor]: INTRAPERITONEAL, Species: MOUSE, Strain/Sex: SWR/MALE, Target Tissue: Type of Lesion: LUNG: ADENOMA, Dose [Carcinogen]: 1 MG/G BW IN DISTILLED WATER ONCE, Promoter: NONE USED) was 100%, 100%, 0%, not significant; the “tumour outcome (control, treated, inhibition, significance)” value (Carcinogen: URETHANE, 51-79-6, Dose [Inhibitor]: 0.1 MG/GM BW AS A 1% SUSPENSION IN DISTILLED WATER TWICE AT 13 WK OF AGE GIVEN 24 HR APART STARTING 24 HR PRIOR TO CARCI, Route [Inhibitor]: INTRAPERITONEAL, Species: MOUSE, Strain/Sex: SWR/MALE, Target Tissue: Type of Lesion: LUNG: ADENOMA, Dose [Carcinogen]: 0.5 MG/GM BW IN DISTILLED WATER ONCE AT SAME TIME AS LAST AGENT TREATMENT, Promoter: NONE USED) is reported as 83%, 100%, -20%, not significant; the “tumour outcome (control, treated, inhibition, significance)” value (Carcinogen: URETHANE, 51-79-6, Dose [Inhibitor]: 0.1 MG/GM BW AS A 1% SUSPENSION IN DISTILLED WATER TWICE AT 22 WK OF AGE GIVEN 24 HR APART STARTING 24 HR PRIOR TO CARCI, Route [Inhibitor]: INTRAPERITONEAL, Species: MOUSE, Strain/Sex: SWR/MALE, Target Tissue: Type of Lesion: LUNG: ADENOMA, Dose [Carcinogen]: 0.5 MG/GM BW IN DISTILLED WATER ONCE AT SAME TIME AS LAST AGENT TREATMENT, Promoter: NONE USED) is 71%, 71%, 0%, not significant.
For `S=C=NCCCCCCCCc1ccccc1`, the “tumour outcome (control, treated, inhibition, significance)” value is on record as 100%, 100%, 0%, not significant (Carcinogen: 4-(METHYLNITROSAMINO)-1-(3-PYRIDYL)-1-BUTANONE, 64091-91-4, Dose [Inhibitor]: 0, 0.04 UMOL ONCE 2 HR PRIOR TO CARCINOGEN DOSE (STUDY DURATION: 16 WK), Route [Inhibitor]: GAVAGE, Species: MOUSE, Strain/Sex: STRAIN-A/FEMALE, Target Tissue: Type of Lesion: LUNG: ADENOMA, Dose [Carcinogen]: 10 UMOL IN 0.1 ML SALINE ONCE, Promoter: NONE USED); 100%, 100%, 0%, not significant (Carcinogen: 4-(METHYLNITROSAMINO)-1-(3-PYRIDYL)-1-BUTANONE, 64091-91-4, Dose [Inhibitor]: 0, 0.1 UMOL ONCE 2 HR PRIOR TO CARCINOGEN DOSE (STUDY DURATION: 16 WK), Route [Inhibitor]: GAVAGE, Species: MOUSE, Strain/Sex: STRAIN-A/FEMALE, Target Tissue: Type of Lesion: LUNG: ADENOMA, Dose [Carcinogen]: 10 UMOL IN 0.1 ML SALINE ONCE, Promoter: NONE USED); 100%, 90%, 10%, p<0.05 (Carcinogen: 4-(METHYLNITROSAMINO)-1-(3-PYRIDYL)-1-BUTANONE, 64091-91-4, Dose [Inhibitor]: 0, 0.2 UMOL ONCE 2 HR PRIOR TO CARCINOGEN DOSE (STUDY DURATION: 16 WK), Route [Inhibitor]: GAVAGE, Species: MOUSE, Strain/Sex: STRAIN-A/FEMALE, Target Tissue: Type of Lesion: LUNG: ADENOMA, Dose [Carcinogen]: 10 UMOL IN 0.1 ML SALINE ONCE, Promoter: NONE USED).
On to `C=CCS(=O)(=O)CC=C`, for which, for the setting “Carcinogen: Vinyl carbamate, 15805-73-9, Dose [Inhibitor]: 50 mg/kg once at beginning of experiment (Study duration: 25 wk), Route [Inhibitor]: Oral, Species: Mouse, Strain/Sex: F1 (Big Blue x A/J), Target Tissue: Type of Lesion: Lung: Papilliary tumors and solid tumors, Dose [Carcinogen]: 60 mg/kg once 2 hr after inhibitor (Study duration: 25 wk), Promoter: None”, the outcome is recorded as “papilliary tumors: 84 (58%), 21 (13.5%), p<0.01 (significant decrease). solid tu”.
With `CCCCNC(=O)\C=C(C)/C=C/C=C(C)/C=C/C1=C(C)CCCC1(C)C`, for the setting “Carcinogen: N-BUTYL-N-(4-HYDROXYBUTYL)NITROSAMINE, 3817-11-6, Dose [Inhibitor]: 1.5 MMOL/KG IN DIET FOR 133 D STARTING 1 WK AFTER THE LAST CARCINOGEN DOSE ( STUDY DURATION: 190 D), Route [Inhibitor]: ORAL, Species: MOUSE, Strain/Sex: BDF/MALE, Target Tissue: Type of Lesion: URINARY BLADDER: TRANSITIONAL CELL CARCINOMA, Dose [Carcinogen]: 7.5 MG 1/WK FOR 8 WK, Promoter: NONE USED”, the “tumour outcome (control, treated, inhibition, significance)” value is recorded as 21/100 (21%), 19/97 (20%), 5%, not significant.
